In PubChem BioAssay AID743417 (Broad Institute, 2014):
Inconclusive results are not listed.

Test system: Clone20 osteoblast Shn3 3'UTR firefly luciferase, 24 h
Test: Schnurri-3 3'UTR-luciferase signal suppressors – cell-based, Clone20 osteoblasts, luminescence, dry powder, set 2, dose response (AID 743417)

| Structure (SMILES) | AC50 [µM] |
| --- | --- |
| Cc1ccccc1CS(=O)(=O)c1ncc(Cl)c(C(=O)Nc2ccc(F)cc2)n1 | 3 |
| CCOC(=O)c1ccc(NC(=O)Cn2ncc(Cl)c(Cl)c2=O)cc1 | 2.32 |
| Cc1ccc(Cn2ccc(NC(=O)c3nn(C)cc3[N+](=O)[O-])n2)cc1 | 4.09 |
| CC[C@@H](C)[C@H](CNC)NC[C@@H](Cc1cccc2ccccc12)NCCc1cccc(C(F)(F)F)c1 | 8.08 |
| CCOC(=O)c1c(NC(=O)c2nn(CC)cc2Br)sc(C)c1C | 11 |
| COc1ccc2c(c1OC)C(=O)OC2Nc1nc(-c2ccccc2)cs1 (stereo not given) | 4.7 |
| CC(CCCC(C)(C)O)NC(=O)c1cc(COc2ccc3ncccc3c2)on1 (stereo not given) | 1.75 |
| CCN1CCN(Cc2ccc(NC(=O)c3ccc(C)c(/C=C/c4cnc(Nc5cc(N6CCNCC6)nc(C)n5)cn4)c3)cc2C(F)(F)F)CC1 | 9.56 |
| COc1ccccc1-c1cc(C(F)(F)F)nc(S(=O)(=O)CCCC(=O)Nc2cccnc2Cl)n1 | 10.6 |
| COc1cnc(-c2ccccn2)nc1NC(C)C | 2.81 |
| CCS(=O)(=O)c1ncc(Cl)c(C(=O)Nc2ccc(S(=O)(=O)N3CCCC(C)C3)cc2)n1 (stereo not given) | < 0.26 |
| CCOC(=O)N1CCN(c2ccc(S(=O)(=O)N(Cc3ccccc3)Cc3ccccc3)cn2)CC1 | 2.59 |
| O=C1c2c(O)ccc(O)c2C(=O)c2c(NCCNCCO)ccc(NCCNCCO)c21 | 0.658 |
| CCC(=O)OCCNc1cc(Sc2nc3ccccc3[nH]2)c2nonc2c1[N+](=O)[O-] | 1.09 |
| CS(=O)(=O)c1ccc(Sc2nc3ccccc3s2)c([N+](=O)[O-])c1 | 9.73 |
| Nc1cc2c(cc1Br)[nH]c(=O)c1ccccc12 | 5.46 |
| CCCC(=O)OCCNc1cc(Sc2nccn2C)c2nonc2c1[N+](=O)[O-] | 7.22 |
| Fc1ccc2[nH]c3c(N4CCN(c5ccccc5)CC4)ncnc3c2c1 | 3.78 |
| CCN(CC)S(=O)(=O)c1ccc(N(C)Cc2ccc(C(F)(F)F)cc2)nc1 | 5.85 |
| OCCCNc1cc(-c2ccnc(Nc3cccc(Cl)c3)n2)ccn1 | < 0.26 |
| Cc1cc(O)c(C(C)C)cc1C1(c2cc(C(C)C)c(O)cc2C)OC(=O)c2ccccc21 | 9.45 |
| O=C(/C=C/Nc1ccccc1Br)c1ccccn1 | 1.8 |
| O=C(Nc1nc(-c2ccccc2)cs1)C1CCCCN1S(=O)(=O)c1ccccc1 (stereo not given) | 5.14 |
| CC(Oc1cccc(Br)c1)C(=O)NNC(=O)c1ccccn1 (stereo not given) | 3.36 |
| C[C@@H]1C[C@@H]([C@H](O)CC2CC(=O)NC(=O)C2)C(=O)[C@@H](C)C1 | 0.345 |

| Structure (SMILES) | AC50 [µM] |
| --- | --- |
| COc1ccc(CNCCc2ccc(Cl)cc2)cc1OCc1ccccc1 | 5.59 |
| COc1ccc(CNc2ncnc3c2[nH]c2ccccc23)cc1 | 4.19 |
| Cc1nn(C)c(C(=O)NCc2ccc(Cl)cc2)c1Cl | 1.74 |
| CCOc1ccc(CN(C)c2ccc(S(=O)(=O)N3CCN(C)CC3)cc2[N+](=O)[O-])cc1OC | 3.38 |
| CC(C)Cn1c(N)c(C(=O)COC(=O)C2Cc3ccccc3CN2S(C)(=O)=O)c(=O)n(C)c1=O (stereo not given) | 0.72 |
| COc1ccccc1NC(=O)Cn1cc(C(=O)C2CC2)c2ccccc21 | 4.76 |
| CS(=O)(=O)c1ncc(Cl)c(C(=O)Nc2ccc(N3CCOCC3)cc2)n1 | 1.21 |
| Oc1cc(Nc2cccnc2)cc2cccnc12 | 2.12 |
| CCn1c(N2CCN(S(=O)(=O)c3ccc(Cl)cc3)CC2)nc2ccccc21 | 9.14 |
| NC1=NC[C@H](c2ccccc2)N1CCCCC1CCCCC1 | 4.23 |
| CC(=O)c1cn(Cc2ccccc2F)c2ccccc12 | 2.96 |
| CS(=O)(=O)c1ccc(C(=O)OCC(=O)N2CCOCC2)cc1[N+](=O)[O-] | 17.5 |
| COc1ccccc1/C=C1\CCCC2=C1Nc1nnnn1C2c1ccccc1OC (stereo not given) | 36 |
| COC(=O)/C(=C1/Oc2cc(C)oc(=O)c2S1)C(F)(F)F | 4.64 |
| Cc1nn(-c2ccccc2)c(C)c1C(=O)OC(C)C(=O)NC1CCCCC1 (stereo not given) | 8.19 |
| C=CCn1nc([N+](=O)[O-])nc1Sc1cccc2cccnc12 | 10.7 |
| Cc1cc(C)c(O)c(-c2cc(C(=O)Nc3ccc(S(=O)(=O)N4CCOCC4)cc3)[nH]n2)c1 | 5.48 |
| Cc1ccccc1OCCOC(=O)c1cc(S(=O)(=O)N2CCCCC2)ccc1N1CCOCC1 | 3.79 |
| CCC1CSC(Nc2ccc(C(=O)/C=C/c3ccc(OC)c(OC)c3)cc2)=N1 (stereo not given) | 4.47 |
| CN(C)c1ccc(C=c2c3cc([N+](=O)[O-])ccc3n3c2cc(-c2ccccc2)[n+]3C)cc1 | 3.3 |
| Cc1cccc(C(C)(C)C)c1OCCN1CCCC1 | 34.2 |
| O=C(Nc1ccc(N2CCOCC2)cc1)c1ccc(Cl)c(S(=O)(=O)N2CCCC2)c1 | 2.17 |
| COc1cc2ccnc(Cc3cccc(OC)c3OC)c2cc1OC | 4.64 |
| CCn1c(=O)c(C(=O)Nc2nc3ccccc3[nH]2)c(O)c2ccccc21 | 6.01 |
| O=C(/C=C/c1ccccc1)NC(NC(=S)Nc1ccc(Cl)cc1)C(Cl)(Cl)Cl (stereo not given) | 5.13 |
